# Reference: patent US12681006B2, “Methods of generating human endometrial stromal fibroblasts and three-dimensional multi-layered human endometrial tissue compositions” (Northwestern University, priority 2021, dated 2026)
# Values joined by “and” are separate entries in the source; they are usually repeats but may differ in a detail not shown here. Equal entries are not always repeated.
# Columns and labels:
# Type in all cases: cell-based, human
# Hedgehog signaling = assay: Inhibition of Hedgehog signaling in PSC-ESF/EEO co-cultures with cyclopamine, qPCR
# Experimental: FIG. 12a-FIG. 12d. […] Related to FIG. 5 a. Schematic of treatment paradigm for inhibition of Hedgehog signaling. Co-cultures were cultured in vehicle treatment media with either 10 uM cyclopamine (+) or vehicle (EtOH, −). After 48 h co-cultures were harvested for RNA and qPCR analysis. b. Gene expression of direct downstream mediators of IHH signaling: GLI1 and GLI2. […] (d12 v.−ns p-value=0.0953; −v.+ns p-value−v.+p-value=0.2661). c. […] (Lachman, A., 2010; ENCODE Project Consortium, 2011) d. Top 10 pathways enriched in decidualized co-cultured PSC-ESF over decidualized monolayer ESF as analyzed by the integrated Bioplanet 2019 platform. Both enrichment analyses done using Enrichr with a 2-fold cutoff ((http://amp.pharm.mssm.edu/Enrichr/).
# BMP2, a member of the TGF B family, is necessary for decidualization (FIG. 5d). BMP2 in ESF can be activated by hormone treatments, such as P4 and cAMP, which directly increase BMP2 expression to mediate decidualization in hESF (Lee et al., 2007). In the mouse, stromal BMP2 is further amplified indirectly by P4 activated IHH from the luminal epithelium (Lee et al., 2007). Increased stromal BMP2 subsequently mediates decidualization by activating WNT (WNT4) signaling, FK506-binding proteins (FKBP5), and prostaglandin (PTGS1) (Li et al., 2013). To examine the hormone mediated activation of IHH signaling in co-cultured PSC-ESF, we analyzed expression of IHH and BMP signaling targets after decidualization. […] HOXA10, a mediator of stromal hormone response, was not increased by co-culture. However, it trended towards an increase after hormone treatment, though without statistical significance (FIG. 5e). Importantly, we observed that BMP2 and BMP2 signaling targets (WNT4, FKBP5, and PTGS1) also were increased in expression in response to co-culture, while BMP2, FKBP5, and PTGS1 were further increased by hormone treatment (FIG. 5e).
# (§1) qRT-PCR: RNA Isolation was performed using the RNAqueous-Micro Total RNA Isolation Kit (ThermoFisher Scientific #AM1931) following manufacturer's instructions. DNAse treatment and reverse transcription were performed using SuperScript IV VILO Master Mix with ezDNase Enzyme (ThermoFisher Scientific #11766050) following manufacturer's instructions. Quantitative PCR was performed using SYBR Green PCR Master Mix (ThermoFisher Scientific #4312704) using the QuantStudio 7. ESC and iPSC differentiated cells were used for analysis. A list of primers can be found in Table 1.
# [1] = test system: pluripotent stem cells (PSC); assay: Differentiation of PSC to intermediate mesoderm with CHIR99021, marker expression by qPCR/ICC
# Description: Generation of ESF from pluripotent stem cells (PSC) involves sequential differentiation of the cells through a series of intermediate progenitor cells species (FIG. 6). The first step (FIG. 1a) requires the specification of intermediate mesoderm (IM), a common mesodermal progenitor for both nephric and reproductive tracts (Yucer et al., 2017). […] We observed high levels of mesodermal-specific Brachyury (TBXT) gene expression, and concurrent reduction of pluripotency markers OCT3/4 and SOX2 in 2 days (FIG. 1b, d). LHX1 and PAX2, two transcription factors expressed in the intermediate mesoderm (IM), also were detected at this time (FIG. 1c, d). […] At day 4 of differentiation, TBXT expression was decreased, LHX1 and PAX2 expression was either maintained or increased, and expression of anti-Müllerian hormone receptor 2 (AMHR2), a specific marker of Müllerian duct mesenchyme, increased (FIG. 1b, c, e).
# (§2) Monolayer Cell Culture and Differentiation: Both embryonic (H7) and iPS (reprogrammed from Coriell fibroblast GM03651 by Sendai virus (ThermoFisher #A16517) following manufacturer's instruction) cells lines of female origin (XX) were used for differentiation as well as co-culture. Cells were cultured in mTeSR1 media (STEMCELL Technologies #85875) and on Corning Matrigel hESC-Qualified Matrix (Corning™ #354277) coated tissue culture plastic plates. Lot specific dilution factor volume provided by the manufacturer is diluted into 24 mL of cold DMEM/F12 (ThermoFisher Scientific #11320-082). To coat: 1 mL of this solution is applied to 1 well of a 6 well plate (9.6 cm^2) and incubated at RT for 1 hr or 37 C for 30 min. To differentiate, PSC were dissociated to single-cell level using Accutase (EMD Millipore #SCR005). Once at single cell level, equal volume mTeSR1 was added to stop dissociation and cells were pelleted at 0.2e3 rcf for 5 min. Supernatant was discarded and the remaining pellet of PSC was resuspended in mTeSR1 and 10 μM Y27632 (Reprocell #04-0012-02) and plated onto Corning Matrigel hESC-Qualified Matrix coated tissue culture plates at 3×10^5 per 3.8 cm^2 or equivalent density. Media is replaced with Differentiation Basal Media (Advanced RPMI 1640 (Gibco #12633020), 1× Gluatmax (Gibco #35050061) and […] CHIR99021 (STEMCELL Technologies #72054). After 4 days, the media is changed to Differentiation Basal Media containing 100 ng/mL recombinant Human WNT7A (R&D Systems #3008-WN-025). The final differentiation treatment media was Differentiation Basal Media with 10 ng/mL Recombinant Human BMP2 (R&D Systems #355-BM010), and 10 nM β-estradiol (E2, Millipore Sigma #E2758-250MG). While it varies by cell line, the expected yield at day 12 off differentiation when starting with 3×10^5 stem cells is 0.6×10^6-13.2×10^6 PSC-ESF.
# as §1
# Immunocytochemistry: Monolayer cultures: cells cultured on Matrigel coated coverslips were washed with 1×DPBS (Corning #21031CV) before fixing the cells using 4% Formaldehyde solution (Millipore Sigma #P6148) for 20 min at room temperature. After 20 min, cells are washed 3 times with 1×DPBS. Prior to staining, cells were blocked for 1 hr at RT in PBS (Fisher Scientific #AM9625), 0.1% BSA (Millipore Sigma #A7906), 0.25% Triton-X (Millipore Sigma #T8787), and 10% Normal Goat Serum (Jackson Immuno Research #005-000-121). Primary Antibodies were diluted into the same buffer for incubation at 4° C. overnight. […]
# [2] = test system: PSC derived cells, day 4 of differentiation; assay: WNT7A treatment day 4-8 to expand Müllerian duct mesenchyme (PSC-ESP), marker expression by qPCR/ICC
# Experimental: To preferentially expand the Müllerian duct mesenchyme population, at day 4 we continued activating the WNT/B-catenin pathway with WNT7A (100 ng/ml) treatment from day 4-8. […] The Müllerian duct is patterned along the anterior-posterior axis to develop into the fallopian tubes (HOXA9), endometrium (HOXA10 and HOXA11), cervix (HOXA11), and vagina (HOXA13) (Du and Taylor, 2015). […] Immunocytochemical (ICC) analyses validated the qPCR results with increasing nuclear expression of the HOXA11 transcription factor from day 0 to day 8 (FIG. 1g). The expression of mesenchymal lineage markers platelet derived growth factor beta (PDGFRβ) and vimentin (VIM) supported specification to the stromal cell type (FIG. 1h). HOXA11 was confirmed to be co-expressed with mesenchymal markers AMHR2 and VIM (FIG. 1h, i). […] Further, 93.31+1.46% of the cells were Ki67^+, confirming that the cells at day 8 are in cell cycle (FIG. 1i, j). PSC-ESP at day 8 of differentiation could be frozen and thawed for subsequent differentiation, generating cells with appropriate proliferative properties and lineage-specific marker expression (FIG. 7f, g). In toto, these findings indicate that developmentally and regionally appropriate endometrial stromal progenitors, which we termed PSC-ESP, were generated at this point of the differentiation protocol.
# as §2
# as §1, with “1. […]” for “1.”
# [3] = 10 uM cyclopamine, 48 h, vs vehicle (EtOH)
# [4] = day 8, after CHIR99021 day 0-4 and WNT7A day 4-8, ICC
molecule,measurement,setting,value
CC1=C2C[C@H]3[C@@H](CC=C4C[C@@H](O)CC[C@@]43C)[C@@H]2CC[C@]12O[C@@H]1C[C@H](C)CN[C@H]1[C@H]2C [cyclopamine],GLI1 gene expression,Hedgehog signaling; [3],significantly downregulated
same,GLI2 gene expression,Hedgehog signaling; [3],similarly regulated without statistical significance
same,BMP2 expression,"Hedgehog signaling; cyclopamine 48 hr, co-culture",trended towards a reduction
same,HOXA10 expression,"Hedgehog signaling; cyclopamine 48 hr, co-culture",significant reduction
same,NR2F2 expression,"Hedgehog signaling; cyclopamine 48 hr, co-culture",significant reduction
Cc1c[nH]c(-c2cnc(NCCNc3ccc(C#N)cn3)nc2-c2ccc(Cl)cc2Cl)n1 [CHIR99021],LHX1 and PAX2 (intermediate mesoderm transcription factors) expression,"[1]; 8 μM CHIR99021, day 2",detected
same,mesodermal-specific Brachyury (TBXT) gene expression,"[1]; 8 μM CHIR99021, day 2 vs day 0, qPCR",high levels
same,"expression of AMHR2, marker of Müllerian duct mesenchyme","[1]; 8 μM CHIR99021, day 4 of differentiation",increased
same,pluripotency markers OCT3/4 and SOX2,"[1]; 8 μM CHIR99021, in 2 days, qPCR/ICC",reduction
same,expression of endoderm and mesendoderm marker SOX17,"[1]; 8 μM CHIR99021, qPCR",low but significant increase
same,cell expansion of treated PSC,[1]; CHIR99021 treatment of PSC,rapid expansion of cells
same,"LHX1 and PAX2 induction, comparison of concentrations of CHIR99021","[1]; day 4, ESC, both concentrations of CHIR99021","highly, but differently induced"
"WNT7A: recombinant Human WNT7A (R&D Systems), used as second Wnt/β-catenin agonist (protein, UniProt O00755 32-349, looked up) Protein Wnt-7a: LGASIICNKIPGLAPRQRAICQSRPDAIIVIGEGSQMGLDECQFQFRNGRWNCSALGERTVFGKELKVGSREAAFTYAIIAAGVAHAITAACTQGNLSDCGCDKEKQGQYHRDEGWKWGGCSADIRYGIGFAKVFVDAREIKQNARTLMNLHNNEAGRKILEENMKLECKCHGVSGSCTTKTCWTTLPQFRELGYVLKDKYNEAVHVEPVRASRNKRPTFLKIKKPLSYRKPMDTDLVYIEKSPNYCEEDPVTGSVGTQGRACNKTAPQASGCDLMCCGRGYNTHQYARVWQCNCKFHWCCYVKCNTCSERTEMYTCK",expression of endometrium specific genes HOXA10 and HOXA11,"[2]; 100 ng/mL WNT7A day 4 to day 8, only in the 8 uM CHIR99021 condition",only induced high expression
same,Müllerian mesenchyme specific AMHR2 expression,"[2]; 100 ng/ml WNT7A, day 4-8, qPCR",further induced
same,epithelium specific marker WNT7A expression,"[2]; 100 ng/ml WNT7A, day 4-8, qPCR",did not induce
same,HOXA10 and HOXA11 expression,"[2]; 100 ng/ml WNT7A, day 8 of differentiation, qPCR",significantly upregulated
same,HOXA9 (fallopian tube) and HOXA13 (vagina) expression,"[2]; WNT7A day 4 through 8, d4 vs d8, qPCR",not significantly upregulated
same,DAPI+ cells expressing both AMHR2 and HOXA11,[2]; [4],78.55+8.17% and 78.5%
same,DAPI+ cells positive for HOXA11,[2]; [4],92.27+5.15% and 92.3%
same,cells Ki67+,[2]; [4],93.31+1.46% and 93.3%
